Literature values as cited in patent US20030232367A1, “Differentially expressed genes involved in angiogenesis, the proteins encoded thereby, and methods of using the same” (priority 2002, published 2003).

Test system: vascular endothelial cell proliferation
Conditions: endothelial vs tumor cell proliferation (Ingber et al. 1990)

CO[C@@H]1[C@H](OC(=O)NC(=O)CCl)CC[C@]2(CO2)[C@H]1[C@@]1(C)O[C@@H]1CC=C(C)C [AGM-1470]
half-maximal inhibition of vascular endothelial cell proliferation at lower concentration than tumor cell proliferation: 4 logs
